Experimental data published in ChEMBL document CHEMBL5506042, “Discovery of the Clinical Candidate IDOR-1117-2520: A Potent and Selective Antagonist of CCR6 for Autoimmune Diseases” (J Med Chem, 2024).
Values after ≈ are worked out from the molar mass of the structure shown.

Assays:
[1] = Intrinsic clearance in human hepatocytes in presence of ABT measured per million cells; type: ADME, cell-based, Hepatocyte; settings: with ABT, read-out: CLH
[2] = AUC in Beagle dog at 10 mg/kg, po; type: ADME, organism-based, Canis lupus familiaris; settings: in vivo
[3] = Cmax in Wistar rat at 100 mg/kg, po; type: ADME, organism-based; settings: in vivo
[4] = target: Cytochrome P450 2D6 (Homo sapiens, UniProt P10635); assay: Inhibition of CYP2D6 (unknown origin); type: ADME
[5] = Clearance in Beagle dog at 1 mg/kg, iv; type: ADME, organism-based, Canis lupus familiaris; settings: in vivo
[6] = Oral bioavailability in Beagle dog at 3 mg/kg; type: ADME, organism-based, Canis lupus familiaris; settings: in vivo
[7] = target: T1, Solute carrier organic anion transporter family member 1B1 (Homo sapiens, UniProt Q9Y6L6); assay: Inhibition of OATP1B1 (unknown origin)
T1 sequence (Q9Y6L6 whole entry): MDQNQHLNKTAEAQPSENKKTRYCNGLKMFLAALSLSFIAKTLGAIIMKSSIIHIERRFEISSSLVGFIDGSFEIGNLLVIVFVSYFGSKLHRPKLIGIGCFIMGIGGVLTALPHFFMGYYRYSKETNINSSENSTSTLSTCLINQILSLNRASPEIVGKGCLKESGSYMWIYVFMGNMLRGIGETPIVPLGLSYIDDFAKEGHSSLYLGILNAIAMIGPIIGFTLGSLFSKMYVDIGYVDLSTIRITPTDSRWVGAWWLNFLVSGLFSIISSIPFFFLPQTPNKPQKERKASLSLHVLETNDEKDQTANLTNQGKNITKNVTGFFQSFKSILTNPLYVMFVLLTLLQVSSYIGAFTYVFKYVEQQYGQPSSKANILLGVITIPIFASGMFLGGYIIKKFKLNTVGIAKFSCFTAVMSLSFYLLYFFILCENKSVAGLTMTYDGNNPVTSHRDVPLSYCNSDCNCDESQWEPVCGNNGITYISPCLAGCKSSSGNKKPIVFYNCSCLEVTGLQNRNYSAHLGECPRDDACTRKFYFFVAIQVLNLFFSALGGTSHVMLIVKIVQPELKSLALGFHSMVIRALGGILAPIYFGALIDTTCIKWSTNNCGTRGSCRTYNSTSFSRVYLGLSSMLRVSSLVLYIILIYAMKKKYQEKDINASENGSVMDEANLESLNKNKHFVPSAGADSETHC

[8] = Fraction unbound in human plasma at 1 uM by rapid equilibrium dialysis based LC-MS/MS analysis; type: ADME, cell-free
[9] = Tmax in Wistar rat at 100 mg/kg, po; type: ADME, organism-based; settings: in vivo
[10] = AUC in Wistar rat at 100 mg/kg, po; type: ADME, organism-based; settings: in vivo
[11] = target: T2, Cytochrome P450 3A4 (Homo sapiens, UniProt P08684); assay: Induction of CYP3A4 (unknown origin); type: ADME
[12] = Oral bioavailability in Beagle dog at 10 mg/kg; type: ADME, organism-based, Canis lupus familiaris; settings: in vivo
[13] = Volume of distribution at steady state in Beagle dog at 1 mg/kg, iv; type: ADME, organism-based, Canis lupus familiaris; settings: in vivo, read-out: Vdss
[14] = AUC in Wistar rat at 3 mg/kg, iv; type: ADME, organism-based; settings: in vivo
[15] = target: T2, Cytochrome P450 3A4; assay: Time dependent inhibition of CYP3A4 (unknown origin); type: ADME
[16] = Solubility of the compound at pH <[…] at 37 degC; type: physicochemical
[17] = AUC in Beagle dog at 3 mg/kg, po; type: ADME, organism-based, Canis lupus familiaris; settings: in vivo
[18] = tested on: HepaRG; assay: Cytotoxicity against human HepaRG cells assessed as leakage of intracellular LDH at 100 uM incubated for 24 hrs by spectrophotometry; type: toxicity, cell-based
[19] = Tmax in Beagle dog at 1 mg/kg, iv; type: ADME, organism-based, Canis lupus familiaris; settings: in vivo
[20] = Clearance in Wistar rat at 3 mg/kg, iv; type: ADME, organism-based; settings: in vivo
[21] = Volume of distribution at steady state in Wistar rat at 3 mg/kg, iv; type: ADME, organism-based; settings: in vivo, read-out: Vdss
[22] = Intrinsic clearance in dog liver microsomes at 1 uM measured for 15 mins in presence of NADPH regenerating system by LC-MS/MS analysis; type: ADME, Canis lupus familiaris, Microsome; settings: read-out: CLH
[23] = AUC in Beagle dog at 1 mg/kg, iv; type: ADME, organism-based, Canis lupus familiaris; settings: in vivo
[24] = Fraction unbound in dog plasma at 1 uM by rapid equilibrium dialysis based LC-MS/MS analysis; type: ADME, cell-free, Canis lupus familiaris
[25] = target: T3, Solute carrier organic anion transporter family member 1B3 (Homo sapiens, UniProt Q9NPD5); assay: Inhibition of OATP1B3 (unknown origin)
T3 sequence (Q9NPD5 whole entry): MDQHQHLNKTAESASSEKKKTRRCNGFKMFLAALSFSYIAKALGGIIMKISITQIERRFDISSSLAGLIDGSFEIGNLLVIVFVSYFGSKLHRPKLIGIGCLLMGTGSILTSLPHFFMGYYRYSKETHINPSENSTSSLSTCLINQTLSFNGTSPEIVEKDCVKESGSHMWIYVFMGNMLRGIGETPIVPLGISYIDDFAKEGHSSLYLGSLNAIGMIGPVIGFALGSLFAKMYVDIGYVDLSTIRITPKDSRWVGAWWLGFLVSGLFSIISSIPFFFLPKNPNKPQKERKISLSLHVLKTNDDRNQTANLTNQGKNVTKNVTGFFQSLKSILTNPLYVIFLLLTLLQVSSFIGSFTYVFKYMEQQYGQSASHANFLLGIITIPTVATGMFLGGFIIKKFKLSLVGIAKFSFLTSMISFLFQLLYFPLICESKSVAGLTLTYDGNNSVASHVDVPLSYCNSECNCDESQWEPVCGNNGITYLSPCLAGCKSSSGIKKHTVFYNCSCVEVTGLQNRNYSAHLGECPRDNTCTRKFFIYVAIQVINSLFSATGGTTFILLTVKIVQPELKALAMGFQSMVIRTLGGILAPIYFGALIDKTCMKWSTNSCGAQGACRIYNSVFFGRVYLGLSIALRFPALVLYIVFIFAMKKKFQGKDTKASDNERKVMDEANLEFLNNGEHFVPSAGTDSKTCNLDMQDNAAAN

[26] = Half life in Beagle dog at 1 mg/kg, iv; type: ADME, organism-based, Canis lupus familiaris; settings: in vivo
[27] = Half life in Wistar rat at 3 mg/kg, iv; type: ADME, organism-based; settings: in vivo
[28] = Intrinsic solubility of the compound at pH >11.5 using amorphous form of sample; type: physicochemical; settings: read-out: Intrinsic_solubility
[29] = Intrinsic clearance in human hepatocytes measured per million cells; type: ADME, cell-based, Hepatocyte; settings: read-out: CLH
[30] = Solubility of the compound in aqueous medium at pH <[…]; type: physicochemical
[31] = Apparent permeability across apical to basolateral side in dog MDCK-II cells; type: ADME, cell-based, Canis lupus familiaris
[32] = Tmax in Beagle dog at 3 mg/kg, po; type: ADME, organism-based, Canis lupus familiaris; settings: in vivo
[33] = Cmax in Beagle dog at 3 mg/kg, po; type: ADME, organism-based, Canis lupus familiaris; settings: in vivo
[34] = target: T2, Cytochrome P450 3A4; assay: Inhibition of CYP3A4 (unknown origin); type: ADME
[35] = target: Cytochrome P450 2C9 (Homo sapiens, UniProt P11712); assay: Inhibition of CYP2C9 (unknown origin); type: ADME
[36] = Cmax in Beagle dog at 1 mg/kg, iv; type: ADME, organism-based, Canis lupus familiaris; settings: in vivo
[37] = target: ATP-dependent translocase ABCB1 (Homo sapiens, UniProt P08183); assay: Inhibition of human MDR1
[38] = Intrinsic clearance in human liver microsomes at 1 uM measured for 15 mins in presence of NADPH regenerating system measured per mg protein by LC-MS/MS analysis; type: ADME, Microsome; settings: read-out: CLH
[39] = Oral bioavailability in Wistar rat at 100 mg/kg; type: ADME, organism-based; settings: in vivo

T2 sequence (P08684 whole entry): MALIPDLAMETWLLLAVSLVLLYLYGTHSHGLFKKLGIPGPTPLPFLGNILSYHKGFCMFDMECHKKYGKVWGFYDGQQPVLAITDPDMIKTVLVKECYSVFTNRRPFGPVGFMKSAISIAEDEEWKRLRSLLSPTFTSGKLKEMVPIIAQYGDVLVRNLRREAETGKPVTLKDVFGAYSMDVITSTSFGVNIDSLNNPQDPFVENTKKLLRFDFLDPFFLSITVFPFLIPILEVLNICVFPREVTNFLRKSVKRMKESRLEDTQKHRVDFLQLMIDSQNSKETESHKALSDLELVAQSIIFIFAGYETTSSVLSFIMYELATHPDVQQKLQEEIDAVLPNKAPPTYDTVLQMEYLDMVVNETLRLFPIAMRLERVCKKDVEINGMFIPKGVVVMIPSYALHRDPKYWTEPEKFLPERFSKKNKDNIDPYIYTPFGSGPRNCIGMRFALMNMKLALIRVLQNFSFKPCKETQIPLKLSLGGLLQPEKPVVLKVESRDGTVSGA
ATP-dependent translocase ABCB1, sequence (P08183 whole entry): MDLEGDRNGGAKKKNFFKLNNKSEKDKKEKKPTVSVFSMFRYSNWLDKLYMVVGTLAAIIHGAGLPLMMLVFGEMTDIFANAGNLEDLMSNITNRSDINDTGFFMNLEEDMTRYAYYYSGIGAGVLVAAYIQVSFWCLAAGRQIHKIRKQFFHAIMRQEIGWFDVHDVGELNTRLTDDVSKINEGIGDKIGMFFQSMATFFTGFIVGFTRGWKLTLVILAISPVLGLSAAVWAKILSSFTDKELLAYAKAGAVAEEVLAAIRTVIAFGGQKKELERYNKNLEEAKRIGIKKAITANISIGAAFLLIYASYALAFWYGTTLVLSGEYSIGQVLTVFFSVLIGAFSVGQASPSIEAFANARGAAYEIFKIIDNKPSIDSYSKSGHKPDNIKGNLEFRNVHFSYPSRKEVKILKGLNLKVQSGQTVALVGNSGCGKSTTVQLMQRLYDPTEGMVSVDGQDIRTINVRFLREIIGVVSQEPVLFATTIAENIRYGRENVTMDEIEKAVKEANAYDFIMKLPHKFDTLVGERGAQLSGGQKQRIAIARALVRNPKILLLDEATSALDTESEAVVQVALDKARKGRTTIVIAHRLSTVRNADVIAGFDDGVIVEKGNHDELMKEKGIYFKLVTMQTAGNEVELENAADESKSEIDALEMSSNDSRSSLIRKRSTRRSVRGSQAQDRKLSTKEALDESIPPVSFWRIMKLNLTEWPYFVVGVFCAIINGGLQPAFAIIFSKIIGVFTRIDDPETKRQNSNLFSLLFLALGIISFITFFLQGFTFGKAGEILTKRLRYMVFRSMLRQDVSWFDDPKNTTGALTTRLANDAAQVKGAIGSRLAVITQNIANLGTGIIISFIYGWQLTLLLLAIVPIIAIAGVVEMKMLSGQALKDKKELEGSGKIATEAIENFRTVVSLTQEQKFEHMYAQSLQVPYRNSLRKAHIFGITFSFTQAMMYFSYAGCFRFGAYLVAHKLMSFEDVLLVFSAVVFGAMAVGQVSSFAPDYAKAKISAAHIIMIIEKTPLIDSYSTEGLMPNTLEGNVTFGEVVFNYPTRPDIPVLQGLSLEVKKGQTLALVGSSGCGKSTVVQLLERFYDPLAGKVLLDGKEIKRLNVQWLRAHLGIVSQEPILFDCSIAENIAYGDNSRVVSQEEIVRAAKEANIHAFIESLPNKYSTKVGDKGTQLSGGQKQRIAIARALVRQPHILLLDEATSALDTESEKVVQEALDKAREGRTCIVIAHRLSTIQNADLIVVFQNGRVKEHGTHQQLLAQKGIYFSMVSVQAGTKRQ
Cytochrome P450 2D6, sequence (P10635 whole entry): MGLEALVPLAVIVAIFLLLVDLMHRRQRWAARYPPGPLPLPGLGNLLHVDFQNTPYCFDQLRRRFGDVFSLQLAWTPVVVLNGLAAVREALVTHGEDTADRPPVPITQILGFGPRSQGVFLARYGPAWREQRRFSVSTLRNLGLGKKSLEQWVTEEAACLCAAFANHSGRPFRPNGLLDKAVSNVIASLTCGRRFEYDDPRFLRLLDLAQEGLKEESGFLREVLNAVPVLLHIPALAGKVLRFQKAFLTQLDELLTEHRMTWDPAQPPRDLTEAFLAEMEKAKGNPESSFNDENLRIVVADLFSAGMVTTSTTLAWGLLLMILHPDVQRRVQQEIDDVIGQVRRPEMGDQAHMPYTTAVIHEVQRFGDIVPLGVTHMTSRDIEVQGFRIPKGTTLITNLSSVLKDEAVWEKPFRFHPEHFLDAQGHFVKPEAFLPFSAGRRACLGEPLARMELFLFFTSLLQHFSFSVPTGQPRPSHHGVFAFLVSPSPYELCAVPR
Cytochrome P450 2C9, sequence (P11712 whole entry): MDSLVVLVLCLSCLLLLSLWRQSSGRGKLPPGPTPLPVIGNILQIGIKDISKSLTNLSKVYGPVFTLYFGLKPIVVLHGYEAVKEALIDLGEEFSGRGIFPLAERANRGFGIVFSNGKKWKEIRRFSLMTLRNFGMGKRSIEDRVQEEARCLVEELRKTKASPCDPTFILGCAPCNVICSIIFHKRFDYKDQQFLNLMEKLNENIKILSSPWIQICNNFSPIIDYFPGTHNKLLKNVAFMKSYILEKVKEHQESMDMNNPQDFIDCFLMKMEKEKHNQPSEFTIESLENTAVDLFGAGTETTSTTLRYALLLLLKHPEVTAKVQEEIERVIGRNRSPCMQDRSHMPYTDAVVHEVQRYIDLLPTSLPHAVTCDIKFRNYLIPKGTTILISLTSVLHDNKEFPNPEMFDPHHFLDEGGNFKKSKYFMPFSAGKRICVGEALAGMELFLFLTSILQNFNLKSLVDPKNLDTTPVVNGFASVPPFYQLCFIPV

CC(C)c1ccc([C@](O)(c2cccc(-c3noc(C(C)(C)O)n3)c2)C2(C)CN(C)C2)cc1
hepatocyte CLint [1]: < 2 µL/min/1e6 cells
AUC [2]: 4160 ng·h/mL
Cmax [3]: 822 ng/mL
IC50 [4]: 0.15 µM
clearance [5]: 38 mL/min/kg
bioavailability [6]: 25%
IC50 [7]: > 50 µM
fraction unbound at 1 µM [8]: 0.35
Tmax [9]: 18 min
AUC [10]: 2770 ng·h/mL
Activity [11]: Not Active
bioavailability [12]: 95%
Vd [13]: 11 L/kg
AUC [14]: 443 ng·h/mL
TDI [15]: Not Active
solubility [16]: > 10000 µg/mL
AUC [17]: 332 ng·h/mL
Activity [18]: Non-Toxic
Tmax [19]: 48 min
clearance [20]: 110 mL/min/kg
Vd [21]: 23 L/kg
microsomal CLint at […], 1 µM [22]: 17 µL/min/mg
AUC [23]: 436 ng·h/mL
fraction unbound at 1 µM [24]: 0.33
IC50 [25]: > 50 µM
half-life [26]: 282 min
half-life [27]: 216 min
solubility [28]: 100 µg/mL (≈ 0.23 mM)
hepatocyte CLint [29]: 3.6 µL/min/1e6 cells
solubility [30]: > 100000 µg/mL
Papp A→B [31]: 0.3 ×10⁻⁶ cm/s
Tmax [32]: 48 min
Cmax [33]: 956 ng/mL
IC50 [34]: > 50 µM
IC50 [35]: > 50 µM
Cmax [36]: 103 ng/mL
IC50 [37]: 19 µM
microsomal CLint at […], 1 µM [38]: < 10 µL/min/mg
bioavailability [39]: 19%
